Read-outs that look alike come from different tables or passages of the source.
What was measured:
HDMB03 cells = assay: cell viability, CellTiter-Glo; assay type: cell-based, human; conditions: read-out: EC50 (μM) HDMB03
Procedure, shortened: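 Medulloblastoma cells grown as neurospheres in supplemented neurobasal medium and treated for 7 days; viability read by CellTiter-Glo luminescence. Log10-transformed signal normalized to negative and positive controls; median percent inhibition of triplicates fitted with a four-parameter log-logistic model.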

BRD2-BD1 = BRD2-BD1 (Homo sapiens (Human), UniProt P25440); assay: competitive TR-FRET assay, BET-BD with acetylated peptide ligand; assay type: binding; conditions: read-out: EC50 (μM) BRD2(1)
Method: (§1) Inhibitor potency was determined using a competitive TR-FRET assay as detailed herein, measuring interaction of the respective BET-BD with an acetylated peptide ligand (Table 2).

BRD2-BD2 = BRD2-BD2 (Homo sapiens (Human), UniProt P25440); assay: as above; assay type: binding; conditions: read-out: EC50 (μM) BRD2(2)
Method: as §1

BRDT = BRDT (Homo sapiens, UniProt Q58F21); assay: as above; assay type: binding
Method: as §1

[1] = test system: c-Myc expression in HDMB03 cells; assay: c-Myc expression inhibition, high content microscopy (HCM); assay type: cell-based, human; conditions: read-out: EC50 (μM) Myc-inhibition
all ~42 bromodomains = assay: BROMOscan competitive binding experiment at a single concentration; conditions: 1 μM, FIG. 4
Source text: DiscoverX® can screen compounds against all ˜42 bromodomains (a service called BROMOscan) and perform follow-up KD determination. This service is considered the industrial standard for bromodomain inhibitor comparisons. […] Dots are symbolic of inhibition of the compound at this concentration; the larger the size of the dot, the greater the activity of the compound. […] Though these compounds are selective for the BET family, the selectivity within the BET family is poor. The results of a competitive binding experiment between compounds 19 (left), 41 (center), and 56 (right) (at a single concentration, 1 μM) and a control for each of the bromodomains are shown in FIG. 5.

BRD3(2) = BRD3(2) (Homo sapiens (Human), UniProt Q15059); assay: BROMOscan KD determination; assay type: binding; conditions: BROMOscan, Table 10
Source text: (§2) DiscoverX® can screen compounds against all ˜42 bromodomains (a service called BROMOscan) and perform follow-up KD determination. This service is considered the industrial standard for bromodomain inhibitor comparisons.

BRD3(1) = BRD3(1) (Homo sapiens (Human), UniProt Q15059); assay: BROMOscan KD determination; assay type: binding; conditions: Table 10
Source text: as §2

BRD2(2) = BRD2(2) (Homo sapiens (Human), UniProt P25440); assay: BROMOscan KD determination; assay type: binding; conditions: BROMOscan, Table 10
Procedure, shortened: (§3)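 Read-out is competitive binding relative to a control, recorded as inhibition at one compound concentration (1 μM) across the ~42-bromodomain BROMOscan panel. Dissociation constants were then determined in BROMOscan follow-up KD measurements.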

BRDT(1) = BRDT(1) (Homo sapiens (Human), UniProt Q58F21); assay: BROMOscan KD determination; assay type: binding; conditions: Table 10
Procedure, shortened: as §3

BRDT(2) = BRDT(2) (Homo sapiens (Human), UniProt Q58F21); assay: BROMOscan KD determination; assay type: binding; conditions: BROMOscan, Table 10
Procedure, shortened: as §3

BRD2(1) = BRD2(1) (Homo sapiens (Human), UniProt P25440); assay: BROMOscan KD determination; assay type: binding; conditions: Table 10
Procedure, shortened: as §3

SEM cells = assay: anti-proliferative activity; assay type: cell-based; conditions: Table 5
Method: (§4) After 7 days of treatment, an equal volume of CellTiter-Glo reagent (G7572, Promega) was added and the luminescence signal was measured using an automated Envision plate reader (Perkin-Elmer). Luminescence data were normalized by log10 transformation prior to calculating the percent inhibition using the following equation:
(§5) 100*(negative control mean −compound value)/(negative control mean −positive control mean).

Loucy = assay: anti-proliferative activity; assay type: cell-based; conditions: Table 5
Method: as §4, §5

NALM-16 = assay: anti-proliferative activity; assay type: cell-based; conditions: Table 5
Method: as §4, §5

Chain of BRD2-BD1 (P25440 74-180): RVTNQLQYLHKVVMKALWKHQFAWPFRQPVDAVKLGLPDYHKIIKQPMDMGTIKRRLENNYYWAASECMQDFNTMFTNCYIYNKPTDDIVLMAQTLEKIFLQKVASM
Chain of BRD2-BD2 (P25440 344-453): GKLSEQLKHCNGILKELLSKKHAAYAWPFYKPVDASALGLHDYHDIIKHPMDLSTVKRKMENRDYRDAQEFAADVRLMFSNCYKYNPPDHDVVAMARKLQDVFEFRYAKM
Chain of BRD2(1) (P25440 74-180): as the sequence (P25440 74-180) above
Chain of BRD3(2) (Q15059 306-415): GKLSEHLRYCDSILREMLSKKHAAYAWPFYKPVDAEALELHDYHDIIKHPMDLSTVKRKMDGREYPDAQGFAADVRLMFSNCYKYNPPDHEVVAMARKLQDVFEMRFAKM
Chain of BRD3(1) (Q15059 34-140): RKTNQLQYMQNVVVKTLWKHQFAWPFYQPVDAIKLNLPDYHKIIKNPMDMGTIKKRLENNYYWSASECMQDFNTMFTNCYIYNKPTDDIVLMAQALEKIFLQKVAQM
Chain of BRD2(2) (P25440 344-453): as the sequence (P25440 344-453) above

Compound CC(=O)N1c2ccc(-c3ccc(C(=O)O)cc3)cc2[C@H](Nc2ccc(Cl)cc2)C[C@@H]1C [GSK-726, IBET-726, reference compound] has an EC50 (HDMB03 cells; Table 5) of 5.77 µM, an EC50 (HDMB03 cells; Table 7) of 0.95 µM and an EC50 (HDMB03 cells; Table 9, cancer cell proliferation inhibition) of 0.95 µM. It also gave an EC50 (BRD2-BD1; Table 4) of 1 µM, an EC50 (BRD2-BD1; Table 6) of 1.3 µM and an EC50 (BRD2-BD1; Table 8) of 1.3 µM. The EC50 (BRD2-BD2; Table 4) was 0.057 µM, the EC50 (BRD2-BD2; Table 6) was 0.19 µM and the EC50 (BRD2-BD2; Table 8) was 0.19 µM. For the same compound, the EC50 (BRDT; Table 4, read-out: BRDT EC50) was 5.3 µM, the EC50 (BRDT; Table 6, head names no target, BRDT by comparison with Table 4, read-out: EC50) was 5.5 µM and the EC50 (BRDT; Table 8, head names no target, BRDT by comparison with Table 4, read-out: EC50) was 5.5 µM. The EC50 ([1]; Table 5) was 0.17 µM, the EC50 ([1]; Table 7) was 1.5 µM and the EC50 ([1]; Table 9, c-Myc expression inhibition in HDMB03 cells) was 1.5 µM. For the same compound, the “activity across bromodomain families” value (all ~42 bromodomains) was “activity only versus the BET family”, the Kd (BRD3(2)) was 0.0002 µM and the Kd (BRD3(1)) was 0.0031 µM. For the same compound, the Kd (BRD2(2)) was 0.0002 µM, the Kd (BRDT(1)) was 0.0045 µM and the Kd (BRDT(2)) was 0.00089 µM. It also gave a Kd (BRD2(1)) of 0.0047 µM, an EC50 (SEM cells) of 0.02 µM and an EC50 (Loucy) of 0.33 µM. It also gave an EC50 (NALM-16) of 0.23 µM.

Reference: patent US11028051B2, “Tetrahydroquinoline-based bromodomain inhibitors” (St. Jude Children's Research Hospital, priority 2016, dated 2021)
